“Also recorded” adds a separate entry of the source.
B1: CNTF: Ciliary neurotrophic factor (protein, UniProt P26441 1-200, looked up)
Ciliary neurotrophic factor: MAFTEHSPLTPHRRDLCSRSIWLARKIRSDLTALTESYVKHQGLNKNINLDSADGMPVASTDQWSELTEAERLQENLQAYRTFHVLLARLLEDQQVHFTPTEGDFHQAIHTLLLQVAAFAYQIEELMILLEYKIPRNEADGMPINVGDGGLFEKKLWGLKVLQELSQWTVRSIHDLRFISSHQTGIPARGSHYIANNKKM

What was measured:
Type in all cases: cell-based
[1] = system: goldfish retinal ganglion cells; assay: Axonal outgrowth from dissociated goldfish retinal ganglion cell cultures; settings: for restoration of AF-1-induced growth in the presence of 10 μM 6-TG: inosine 100 μM
Procedure: Axogenesis factor-1 was obtained essentially as described in Schwalb et al., 1995, and Schwalb et al., Neuroscience, 72: 901-910, 1996, the contents of which are incorporated herein by reference). Optic nerves were dissected, cut into fragments 1 mm in length, and incubated in a ratio of 6 nerves in 3 ml of either L-15 media (Gibco BRL) or phosphate-buffered saline (Gibco BRL). After 3-4 hours, nerve fragments were removed by filtering through a 0.22 μm pore low protein-binding filter (Gelman). A low molecular weight fraction of the conditioned media was prepared by ultrafiltration, first with a molecular weight cut-off of 3 kDa (Amicon Centriprep-3), then with a cut-off of 1 kDa (Filtron). The filtrate was used as a positive control at 20-30% final concentration. […] Goldfish (Comet Variety, Mt. Parnell Fisheries, Mt. Parnell Pa.), 6-10 cm in length, were dark-adapted and their retinas dissected. Retinas were incubated with papain (20 μg/ml), activated with cysteine (2.8 mM) for 30 minutes at room temperature, then dissociated by gentle trituration. […] Neuroscience 15: 5514-5625, 1995, the contents of which are incorporated herein by reference). […] Cells were maintained at 21° C. in serum free, defined media containing insulin, selenium, transferrin, bovine serum albumin, catalase, superoxide dismutase, hormones, and vitamins in Eagle's L-15 media as described in Schwalb et al., 1995, the contents of which are incorporated herein by reference). Dissociated cultures of purified rat retinal ganglion cells were prepared by immunopanning as described in Barres et al., Neuron, 1: 791-803, 1988, the contents of which are incorporated herein by reference). In brief, retinas from postnatal day 8 Sparague-Dawley rats were dissociated using papain activated with cysteine. Macrophages were removed by incubation with an anti-rat macrophage antibody (Accurate) followed by immunopanning with an anti-rabbit 1gG antibody. Ganglion cells were isolated by immunopanning with an anti-Thy-1 antibody, then dislodged with trypsin for use in low-density cultures. Rat retinal ganglion cells were maintained at 37° C. in a CO2 incubator using the same medium described above except for the presence of 30 mM bicarbonate. In a typical experiment, samples were plated in quadruplicate in randomized positions of a 24-well plate and the code was concealed to ensure that growth was evaluated in a blinded fashion. Each experiment contained 4 wells of a negative control (media plus supplements only) and 4 wells of a positive control (a standardized AF-1 sample of known activity). […] After the completion of counting, the code was broken, the data tabulated, and means and standard errors were calculated for the 4 replicate wells of each sample using Cricket Graph (CA Associates, […].). […] Group comparisons were based upon pairwise, 2-tailed Student's t-tests. Several independent experiments were performed for most samples, as noted in the figure legends. […] Cell survival is reported as the number of viable RGCs per high-powered field.

GAP-43 = GAP-43 immunohistochemistry in goldfish retinal ganglion cells
Procedure: One hallmark of optic nerve regeneration in vivo is the enhanced expression of the membrane phosphoprotein GAP-43. To investigate whether this upregulation is induced by purines, immunohistochemistry was carried out using a polyclonal rabbit antiserum against recombinant […] GAP-43. Recombinant zebrafish GAP-43 was made by transforming E. coli with a cDNA isolated by Dr. Eva Reinhard, University of Basel, Switzerland (see Reinhard et al., Development, 120: 1757-1775, 1994, the contents of which are incorporated herein by reference) subcloned into the prokaryotic expression vector pTrcHisB (Invitrogen). The protein produced was purified by Ni^2+-NTA-affinity chromatography and used to immunize rabbits. […] Inosine produced a 5.5-fold increase in the number of intensely stained cells over L-15, whereas AF-1 produced a 8-fold increase. In all 3 cases, the intensity of GAP-43 immunostaining correlated strongly with axonal length.

[2] = system: rat retinal ganglion cells; assay: Axonal outgrowth from purified rat retinal ganglion cells; settings: rat RGCs
Procedure: Goldfish (Comet Variety, Mt. Parnell Fisheries, Mt. Parnell Pa.), 6-10 cm in length, were dark-adapted and their retinas dissected. Retinas were incubated with papain (20 μg/ml), activated with cysteine (2.8 mM) for 30 minutes at room temperature, then dissociated by gentle trituration. Repeated cycles of trituration and sedimentation yielded cultures nearly homogeneous in ganglion cells, which are readily identified by their oval shape, phase-bright appearance, size (diameter 15 μm), and extension of only 1 or 2 neurites of uniform caliber; these criteria have been verified by retrograde labeling (see Schwartz & Agranoff, Brain Res. 206: 331-343, 1981 and Schwalb et al., J. Neuroscience 15: 5514-5625, 1995, the contents of which are incorporated herein by reference). Low density cultures were achieved by plating c. 5×10^3 cells/well into poly L-lysine coated, 24-well culture dishes (Costar, Cambridge, Mass.). Cells were maintained at 21° C. in serum free, defined media containing insulin, selenium, transferrin, bovine serum albumin, catalase, superoxide dismutase, hormones, and vitamins in Eagle's L-15 media as described in Schwalb et al., 1995, the contents of which are incorporated herein by reference). Dissociated cultures of purified rat retinal ganglion cells were prepared by immunopanning as described in Barres et al., Neuron, 1: 791-803, 1988, the contents of which are incorporated herein by reference). In brief, retinas from postnatal day 8 Sparague-Dawley rats were dissociated using papain activated with cysteine. Macrophages were removed by incubation with an anti-rat macrophage antibody (Accurate) followed by immunopanning with an anti-rabbit 1gG antibody. Ganglion cells were isolated by immunopanning with an anti-Thy-1 antibody, then dislodged with trypsin for use in low-density cultures. Rat retinal ganglion cells were maintained at 37° C. in a CO2 incubator using the same medium described above except for the presence of 30 mM bicarbonate.
In a typical experiment, samples were plated in quadruplicate in randomized positions of a 24-well plate and the code was concealed to ensure that growth was evaluated in a blinded fashion. Each experiment contained 4 wells of a negative control (media plus supplements only) and 4 wells of a positive control (a standardized AF-1 sample of known activity). Growth and survival were assessed after 6 days for all ganglion cells in 25 consecutive fields of each well using phase contrast microscopy at 400× magnification (c. 150 ganglion cells counted per well). Extension of a process 5 cell diameters in length was the criterion for growth, since it clearly distinguishes stimulated cells from negative controls (see Schwalb et al., 1995). After the completion of counting, the code was broken, the data tabulated, and means and standard errors were calculated for the 4 replicate wells of each sample using Cricket Graph (CA Associates, Islandia, N.Y.). Data were normalized by subtracting the growth in the negative controls (usually 4-5%) and dividing by the net growth in the positive controls. In the most favorable experiments, more than 50% of retinal ganglion cells (RGCs) exposed to AF-1 extended axons 5 cell diameters in length after 6 days. Group comparisons were based upon pairwise, 2-tailed Student's t-tests. Several independent experiments were performed for most samples, as noted in the figure legends. In some cases, cell viability was assessed with the dye 5,6-carboxyfluorescein diacetate. […]

[3] = system: rat retinal ganglion cells; assay: Cell survival of purified rat retinal ganglion cells; settings: CNTF, rat RGCs
Procedure: Goldfish (Comet Variety, Mt. Parnell Fisheries, Mt. Parnell Pa.), 6-10 cm in length, were dark-adapted and their retinas dissected. Retinas were incubated with papain (20 μg/ml), activated with cysteine (2.8 mM) for 30 minutes at room temperature, then dissociated by gentle trituration. Repeated cycles of trituration and sedimentation yielded cultures nearly homogeneous in ganglion cells, which are readily identified by their oval shape, phase-bright appearance, size (diameter 15 μm), and extension of only 1 or 2 neurites of uniform caliber; these criteria have been verified by retrograde labeling (see Schwartz & Agranoff, Brain Res. 206: 331-343, 1981 and Schwalb et al., J. Neuroscience 15: 5514-5625, 1995, the contents of which are incorporated herein by reference). […]
In a typical experiment, samples were plated in quadruplicate in randomized positions of a 24-well plate and the code was concealed to ensure that growth was evaluated in a blinded fashion. […] Growth and survival were assessed after 6 days for all ganglion cells in 25 consecutive fields of each well using phase contrast microscopy at 400× magnification (c. 150 ganglion cells counted per well). […] After the completion of counting, the code was broken, the data tabulated, and means and standard errors were calculated for the 4 replicate wells of each sample using Cricket Graph (CA Associates, Islandia, N.Y.). […]

Molecule | EC50 ([1]; Carassius auratus, 144 h, goldfish RGCs, 6 days, estimated from dose-response curves) | Emax ([1]; Carassius auratus, normalized to AF-1 positive control, adenosine 50-100 μM, guanosine 100 μM, inosine above 25 or 50 μM, read-out: maximal response relative to the level induced by AF-1) | outgrowth at higher concentrations ([1]; concentrations above those giving the maximal response) | dependence of outgrowth on cell density ([1]; fixed concentration (100 μM), 3-4-fold range of cell densities) | restoration of AF-1-induced growth in the presence of 10 μM 6-TG [1] | restoration of AF-1-induced growth in the presence of 10 μM 6-TG ([1]; listed as Inosine) | combined effect with AF-1 ([1]; inosine and AF-1 at saturating / higher concentrations) | combined effect with AF-1 ([1]; inosine and AF-1 each at EC50 (half-maximal) levels) | increase in the number of intensely stained cells over L-15 (GAP-43; GAP-43 immunoreactivity score 2 (intense), 150-200 cells) | GAP-43 levels relative to L-15 treated controls (GAP-43; immunostaining) | restoration of CNTF stimulated growth in the presence of 10 μM 6-TG ([2]; inosine 25 μM) | restoration of CNTF-induced outgrowth in the presence of 10 μM 6-TG ([2]; inosine 50 μM) | increase in the number of cells extending axons 5 cell diameters in length ([2]; inosine at 25 or 50 μM) | outgrowth compared with inosine ([2]; CNTF) | cell survival [3]
OC[C@H]1O[C@@H](n2cnc3c(O)ncnc32)[C@H](O)[C@@H]1O [inosine] | 10 to 15 µM | ~60% | did not cause growth to decline | growth is not a function of cell density; also recorded: independent of cell density | fully restored the growth induced by AF-1 | restored all of the growth induced by AF-1 | growth saturates at the level stimulated by high AF-1 levels alone; also recorded: growth reached a plateau level | additive effects | 5.5 fold | large increase in GAP-43 levels | fully restored | restored CNTF-induced outgrowth nearly to its original level | 50% | – | –
B1 | – | – | – | – | – | – | – | – | – | – | – | – | – | much larger increase in outgrowth | enhanced cell survival

— US7935680B2, “Methods for modulating the axonal growth of central nervous system neurons” (Children's Medical Center Corporation, priority 1997, dated 2011)
